{"source": "patent US8614179B2", "about": "“Antibacterial combination therapy for the treatment of gram positive bacterial infections” (E-Therapeutics PLC, priority 2008, dated 2013)", "system": "Clostridium difficile", "assay": "MIC against clinical isolates of Clostridium difficile", "assay_type": "cell-based", "conditions": "Table 5, miconazole alone or with 0.5 mg/L nisin", "description": "In example experiments miconazole nitrate, econazole nitrate and clotrimazole were dissolved in DMSO. Colistin, D-cycloserine, fosfomycin and polymixin B were dissolved in water. Nisin was suspended at 10 mg/mL in 0.02 M HCl, and the supernatant fraction following centrifugation at 10,000 g for 10 mins was used in the following experiments.\nOther solvents that may be used include caster oil, pyridine, and 0.9% saline. For IV administration agents may be solubilised in polyethoxylated caster oil, or cyclodextrins such as sulfobutylether7-βcyclodextrin or hydroxypropyl-β-cyclodextrin and lactic acid. Minimum inhibitory concentrations (MICs) of a range of clinical and control bacterial organisms were measured according to BSAC (British Society for Antimicrobial Chemotherapy) guidelines (Andrews 2001), for single agents. The method of determining MICs of imidazole with colistin, D-cycloserine, fosfomycin, polymixin B, or nisin is described briefly as follows. MICs were measured by agar dilution. Kill curves were performed in accordance with the methods of Garrison and Nuemiller, 2007. Briefly kill profiles were generated by logarithmically plotting mean CFU/mL data over time. Total logarithmic reductions in bacterial counts were determined by subtracting 24 h CFU/mL values from starting inocula.\nStock solutions were prepared at concentrations of 1000 mg/L and 100 mg/L. To determine the MIC of miconazole, the appropriate amount of each stock solution were added to separate Petri dishes give a range of final concentrations (after the addition of 20 mL molten agar): from 0.12 to 32 mg/L. To determine the MICs of miconazole with the specific agent active on a bacterial cell surface, these concentrations of miconazole were used in addition to a fixed sub-inhibitory amount of the agent active on a bacterial cell surface. […] Volumes (20 mL) of cooled molten IST agar (oxoid) was added to each Petri dish and mixed by swirling. After drying, the plates were stored at 4° C. and protected from light. Plates were used on the day of preparation.\nThe test organisms were grown overnight in 5 mL IST broth. Using a dilution in 0.9% saline of 1:100, the appropriate agar plates were inoculated using a multipoint inoculator.\nAgar plates and microtitre plates were incubated at 37° C. in air for 18-20 hours.\nThe MIC is the minimum amount of an antibiotic at which there is no visible growth of bacteria. Tiny single colonies or faint hazes were not counted as growth. Synergy was reported if the inhibitory effect of the drugs in combination were greater than the sum of the inhibitory effects of each drug singly. The concentration of miconazole, with or without the cell membrane or cell wall active agent, capable of inhibiting the growth of 50% and 90% of the strains tested is reported as the MIC50 and MIC90 respectively. The range of MICs for each group of bacterial strains is also reported.", "note": "Read-outs that look alike come from different tables or passages of the source."}
{"compound": "Clc1ccc(COC(Cn2ccnc2)c2ccc(Cl)cc2Cl)c(Cl)c1", "note": "(stereo not shown) [Miconazole, 1-[2-(2,4-Dichlorophenyl)-2-[(2,4-dichlorophenyl)methoxy]ethyl]-1H-imidazole]", "values": [{"measurement": "MIC", "setting": "Clostridioides difficile, C. difficile clinical isolate 184, read-out: MIC", "value": "> 16", "unit": "µg/mL"}, {"measurement": "MIC", "setting": "C. difficile clinical isolate 5", "value": ">16", "unit": "µg/mL"}, {"measurement": "MIC", "setting": "C. difficile clinical isolate 23", "value": ">16", "unit": "µg/mL"}, {"measurement": "MIC", "setting": "C. difficile clinical isolate 28", "value": ">16", "unit": "µg/mL"}, {"measurement": "MIC", "setting": "C. difficile clinical isolate 30", "value": ">16", "unit": "µg/mL"}, {"measurement": "MIC", "setting": "C. difficile clinical isolate 31", "value": ">16", "unit": "µg/mL"}, {"measurement": "MIC", "setting": "C. difficile clinical isolate 41", "value": ">16", "unit": "µg/mL"}, {"measurement": "MIC", "setting": "C. difficile clinical isolate 47", "value": ">16", "unit": "µg/mL"}, {"measurement": "MIC", "setting": "C. difficile clinical isolate 57", "value": ">16", "unit": "µg/mL"}, {"measurement": "MIC", "setting": "C. difficile clinical isolate 58", "value": ">16", "unit": "µg/mL"}, {"measurement": "MIC", "setting": "C. difficile clinical isolate 77", "value": ">16", "unit": "µg/mL"}, {"measurement": "MIC", "setting": "C. difficile clinical isolate 83", "value": ">16", "unit": "µg/mL"}, {"measurement": "MIC", "setting": "C. difficile clinical isolate 84", "value": ">16", "unit": "µg/mL"}, {"measurement": "MIC", "setting": "C. difficile clinical isolate 87", "value": ">16", "unit": "µg/mL"}, {"measurement": "MIC", "setting": "C. difficile clinical isolate 96", "value": ">16", "unit": "µg/mL"}, {"measurement": "MIC", "setting": "C. difficile clinical isolate 97", "value": ">16", "unit": "µg/mL"}, {"measurement": "MIC", "setting": "C. difficile clinical isolate 98A", "value": ">16", "unit": "µg/mL"}, {"measurement": "MIC", "setting": "C. difficile clinical isolate 99A", "value": ">16", "unit": "µg/mL"}, {"measurement": "MIC", "setting": "C. difficile clinical isolate 102", "value": ">16", "unit": "µg/mL"}, {"measurement": "MIC", "setting": "C. difficile clinical isolate 120", "value": ">16", "unit": "µg/mL"}, {"measurement": "MIC", "setting": "C. difficile clinical isolate 126", "value": ">16", "unit": "µg/mL"}, {"measurement": "MIC", "setting": "C. difficile clinical isolate 130", "value": ">16", "unit": "µg/mL"}, {"measurement": "MIC", "setting": "C. difficile clinical isolate 169", "value": ">16", "unit": "µg/mL"}, {"measurement": "MIC", "setting": "C. difficile clinical isolate 185", "value": ">16", "unit": "µg/mL"}, {"measurement": "MIC", "setting": "C. difficile clinical isolate 186", "value": ">16", "unit": "µg/mL"}]}
